Assay results reported in patent US20220089575A1, “FARNESOID X RECEPTOR AGONISTS AND USES THEREOF” (Metacrine, Inc., priority 2017, published 2022).

molecular target: T1, hFXR (Homo sapiens, UniProt Q96RI1); assay: In Vitro FXR Assay (TK): TK-ECRE-luc reporter in transfected CV-1 cells; format: cell-based; conditions: 18 hrs, luminescence, maximum efficacy of <25% of the Fexarmine control classified as '+'
T1 construct: expressed in transfected cells; host or cells: CV-1 cells
T1 sequence (Q96RI1 1-486): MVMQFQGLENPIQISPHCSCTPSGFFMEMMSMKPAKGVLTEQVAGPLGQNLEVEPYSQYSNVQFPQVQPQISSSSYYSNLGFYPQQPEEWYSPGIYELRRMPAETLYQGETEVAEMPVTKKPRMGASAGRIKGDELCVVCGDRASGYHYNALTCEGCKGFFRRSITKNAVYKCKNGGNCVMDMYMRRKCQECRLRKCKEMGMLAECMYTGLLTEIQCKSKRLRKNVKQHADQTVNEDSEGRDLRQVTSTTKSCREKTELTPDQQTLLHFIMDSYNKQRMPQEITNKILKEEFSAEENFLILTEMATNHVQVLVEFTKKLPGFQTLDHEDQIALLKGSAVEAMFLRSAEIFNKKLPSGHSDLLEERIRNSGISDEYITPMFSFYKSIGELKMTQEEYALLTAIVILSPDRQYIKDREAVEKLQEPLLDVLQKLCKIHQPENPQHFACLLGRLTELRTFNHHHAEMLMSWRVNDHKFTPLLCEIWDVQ
T1 sequence (P19793 1-462 partner): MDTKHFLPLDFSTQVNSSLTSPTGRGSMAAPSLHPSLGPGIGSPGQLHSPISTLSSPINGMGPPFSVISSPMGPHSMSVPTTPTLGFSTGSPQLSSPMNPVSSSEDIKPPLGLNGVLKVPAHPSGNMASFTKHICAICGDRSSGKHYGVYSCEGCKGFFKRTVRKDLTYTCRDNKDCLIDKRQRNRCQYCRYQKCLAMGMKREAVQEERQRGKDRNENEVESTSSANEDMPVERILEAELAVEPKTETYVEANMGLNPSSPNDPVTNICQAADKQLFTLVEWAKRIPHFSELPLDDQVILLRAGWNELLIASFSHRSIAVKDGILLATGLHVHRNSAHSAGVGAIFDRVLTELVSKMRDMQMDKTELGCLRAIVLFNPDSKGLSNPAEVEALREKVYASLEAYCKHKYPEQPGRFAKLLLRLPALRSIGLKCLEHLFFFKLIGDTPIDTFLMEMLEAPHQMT
Method in brief: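 CV-1 cells in DMEM with 10% charcoal-stripped FBS were co-transfected with hFXR, hRXR, TK-ECRE-luc reporter and pCMX-YFP plasmids. After 18 h, compounds serially diluted in DMSO were added for a further 18 h, then cells were lysed and luminescence read.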

`COc1ccc([C@H]2CC[C@H](CN(c3cccc(-c4coc(C5CC5)n4)c3)C(=O)[C@H]3CC[C@H](CC(=O)O)CC3)CC2)nc1C#N` [Compound 21.13, 2-(trans-4-(((trans-4-(6-Cyano-5-methoxypyridin-2-yl)cyclohexyl)methyl)(3-(2-cyclopropyloxazol-4-yl)phenyl)carbamoyl)cyclohexyl)acetic acid] and `COC(=O)N[C@H]1CC[C@H](C(=O)N(C[C@H]2CC[C@H](c3ccc(OC)c(C)c3)CC2)c2cccc(-c3cnc(C4CC4)s3)c2)CC1` [Compound 25, Methyl (trans-4-((3-(2-cyclopropylthiazol-5-yl)phenyl)((trans-4-(4-methoxy-3-methylphenyl)cyclohexyl)methyl)carbamoyl)cyclohexyl)carbamate] cannot be ordered by EC50: at most 250 nM for the first, at most 250 nM for the second.

`CCCOC(=O)[C@H]1CC[C@H](C(=O)N(C[C@H]2CC[C@H](c3ccc(OC)c(C)c3)CC2)c2cccc(-c3cnn(C4CC4)c3)c2)CC1` [Compound 22, trans-Propyl 4-((3-(1-cyclopropyl-1H-pyrazol-4-yl)phenyl)((trans-4-(4-methoxy-3-methylphenyl)cyclohexyl)methyl)carbamoyl)cyclohexanecarboxylate] and `CCCCOC(=O)[C@H]1CC[C@H](C(=O)N(C[C@H]2CC[C@H](c3ccc(OC)c(C)c3)CC2)c2cccc(-c3cnn(C4CC4)c3)c2)CC1` [Compound 22.02, trans-Butyl 4-((3-(1-cyclopropyl-1H-pyrazol-4-yl)phenyl)((trans-4-(4-methoxy-3-methylphenyl)cyclohexyl)methyl)carbamoyl) cyclohexanecarboxylate] cannot be ordered by EC50: at most 250 nM for the first, at most 250 nM for the second.

`COc1ccc([C@H]2CC[C@H](CN(c3cccc(-c4cnn(C5CC5)c4)c3)C(=O)[C@H]3CC[C@H](C(=O)OC(C)C)CC3)CC2)cc1C` [Compound 22.01, trans-Isopropyl 4-((3-(1-cyclopropyl-1H-pyrazol-4-yl)phenyl)((trans-4-(4-methoxy-3-methylphenyl)cyclohexyl)methyl)carbamoyl) cyclohexanecarboxylate] and `COc1ccc([C@H]2CC[C@H](CN(c3cccc(-c4cnn(C5CC5)c4)c3)C(=O)[C@H]3CC[C@H](C(=O)OCC(C)C)CC3)CC2)cc1C` [Compound 22.04, trans-Isobutyl 4-((3-(1-cyclopropyl-1H-pyrazol-4-yl)phenyl)((trans-4-(4-methoxy-3-methylphenyl)cyclohexyl)methyl)carbamoyl) cyclohexanecarboxylate] cannot be ordered by EC50: at most 250 nM for the first, at most 250 nM for the second.

`CCCCCOC(=O)[C@H]1CC[C@H](C(=O)N(C[C@H]2CC[C@H](c3ccc(OC)c(C)c3)CC2)c2cccc(-c3cnn(C4CC4)c3)c2)CC1` [Compound 22.03, trans-Pentyl 4-((3-(1-cyclopropyl-1H-pyrazol-4-yl)phenyl)((trans-4-(4-methoxy-3-methylphenyl)cyclohexyl)methyl)carbamoyl) cyclohexanecarboxylate] and `COc1ccc([C@H]2CC[C@H](CN(c3cccc(-c4cnn(C5CC5)c4)c3)C(=O)[C@H]3CC[C@H](C(=O)OCCC(C)C)CC3)CC2)cc1C` [Compound 22.05, trans-Isopentyl 4-((3-(1-cyclopropyl-1H-pyrazol-4-yl)phenyl)((trans-4-(4-methoxy-3-methylphenyl)cyclohexyl)methyl)carbamoyl) cyclohexanecarboxylate] cannot be ordered by EC50: at least 1000 nM for the first, 250 to 1000 nM for the second.

`CCCOC(=O)[C@H]1CC[C@H](C(=O)N(C[C@H]2CC[C@H](c3ccc(OC)c(C)n3)CC2)c2cc(-c3cnn(C4CC4)c3)ccn2)CC1` [Compound 22.06, trans-Propyl 4-((4-(1-cyclopropyl-1H-pyrazol-4-yl)pyridin-2-yl)((trans-4-(5-methoxy-6-methylpyridin-2-yl)cyclohexyl)methyl)carbamoyl) cyclohexanecarboxylate] and `COc1ccc([C@H]2CC[C@H](CN(c3cccc(-c4cnn(C5CC5)c4)c3)C(=O)[C@H]3CC[C@H](C(=O)NCCO)CC3)CC2)cc1C` [Compound 23, trans-N^1-(3-(1-Cyclopropyl-1H-pyrazol-4-yl)phenyl)-N^4-(2-hydroxyethyl)-N^1-((trans-4-(4-methoxy-3-methylphenyl)cyclohexyl)methyl)cyclohexane-1,4-dicarboxamide] fall in the same range of EC50: 250 to 1000 nM for the first, 250 to 1000 nM for the second.

`CNC(=O)[C@H]1CC[C@H](C(=O)N(C[C@H]2CC[C@H](c3ccc(OC)c(C)c3)CC2)c2cccc(-c3cnc(OC)s3)c2)CC1` [Compound 24, trans-N^1-((trans-4-(4-Methoxy-3-methylphenyl)cyclohexyl)methyl)-N^1-(3-(2-methoxythiazol-5-yl)phenyl)-M-methylcyclohexane-1,4-dicarboxamide] and `COc1ncc(-c2cccc(N(C[C@H]3CC[C@H](c4ccc(OC)c(C)c4)CC3)C(=O)[C@H]3CC[C@H](C(N)=O)CC3)c2)s1` [Compound 24.01, trans-N^1-((trans-4-(4-Methoxy-3-methylphenyl)cyclohexyl)methyl)-N^1-(3-(2-methoxythiazol-5-yl)phenyl)cyclohexane-1,4-dicarboxamide] cannot be ordered by EC50: at most 250 nM for the first, at most 250 nM for the second.

`COc1ncc(-c2cccc(N(C[C@H]3CC[C@H](c4ccc(OC)c(C)c4)CC3)C(=O)[C@H]3CC[C@H](C(=O)N(C)C)CC3)c2)s1` [Compound 24.02, trans-N^1-((trans-4-(4-Methoxy-3-methylphenyl)cyclohexyl)methyl)-N^1-(3-(2-methoxythiazol-5-yl)phenyl)-N^4,N^4-dimethylcyclohexane-1,4-dicarboxamide] and `COc1ncc(-c2cccc(N(C[C@H]3CC[C@H](c4ccc(OC)c(C)c4)CC3)C(=O)[C@H]3CC[C@H](C(=O)NCCN(C)C)CC3)c2)s1` [Compound 24.05, trans-N^1-(2-(Dimethylamino)ethyl)-N^4-((trans-4-(4-methoxy-3-methylphenyl)cyc1ohexyl)methyl)-N^4-(3-(2-methoxythiazol-5-yl)phenyl)cyclohexane-1,4-dicarboxamide] cannot be ordered by EC50: at most 250 nM for the first, 250 to 1000 nM for the second.

`COc1ncc(-c2cccc(N(C[C@H]3CC[C@H](c4ccc(OC)c(C)c4)CC3)C(=O)[C@H]3CC[C@H](C(=O)NCCO)CC3)c2)s1` [Compound 24.03] and `COCCNC(=O)[C@H]1CC[C@H](C(=O)N(C[C@H]2CC[C@H](c3ccc(OC)c(C)c3)CC2)c2cccc(-c3cnc(OC)s3)c2)CC1` [Compound 24.04, trans-N^1-((trans-4-(4-Methoxy-3-methylphenyl)cyclohexyl)methyl)-N^4-(2-methoxyethyl)-N^1-(3-(2-methoxythiazol-5-yl)phenyl) cyclohexane-1,4-dicarboxamide] cannot be ordered by EC50: at most 250 nM for the first, at most 250 nM for the second.

`COc1ncc(-c2cccc(N(C[C@H]3CC[C@H](c4ccc(OC)c(C)c4)CC3)C(=O)[C@H]3CC[C@H](C(=O)NS(C)(=O)=O)CC3)c2)s1` [Compound 24.06, trans-N^1-((trans-4-(4-Methoxy-3-methylphenyl)cyclohexyl)methyl)-N^1-(3-(2-methoxythiazol-5-yl)phenyl)-N^4-(methylsulfonyl) cyclohexane-1,4-dicarboxamide] and `COc1ncc(-c2cccc(N(C[C@H]3CC[C@H](c4ccc(OC)c(C)c4)CC3)C(=O)[C@H]3CC[C@H](NC(=O)OC(C)(C)C)CC3)c2)s1` [Compound 25.01, tert-Butyl (trans-4-(((trans-4-(4-methoxy-3-methylphenyl)cyclohexyl)methyl)(3-(2-methoxythiazol-5-yl)phenyl)carbamoyl)cyclohexyl)carbamate] cannot be ordered by EC50: at most 250 nM for the first, 250 to 1000 nM for the second.
